Tested on: SHP-1
Experiment: SHP-1 phosphorylation in primary patient AML blasts (Western blot)
Format: cell-based, human
Details: collagen alone
Description: FIGS. 4A-4O show the collagen matrix is vital to LAIR-1 induced AML cell death. (FIGS. 4A-C). Flow cytometry quantification of primary live, dead, or apoptotic total blood leukocytes after ex vivo treatment with 10 μg/mL IgG isotype control (gray) or LAIR-1 mAb (red) in the presence (FIG. 4A) or absence (FIG. 4B) of exogenous collagen, or (FIG. 4C), CD451^Lo SSC^Lo blast cells in the presence of isotype control or LAIR-1 mAb. N=3 technical replicates. […] Each dot represents an individual donor. Red shading highlights surface expression >20000 arbitrary units. Blue shading highlights expression <20000 units. Line represents simple linear regression. […] N=4-7 donors. […] Mean pixel density from Western blotting normalized to isotype control condition and graphed relative to total SHP-1. N=3 technical replicates. […] FIGS. 4M and 4N) 4E-BP1 expression as measured by Lumit assay (FIG. 4M) or cleaved caspase-7 as measured by Western blot (FIG. 4N) of cells treated as shown in FIGS. 4I-4K. […] P values calculated by Student's t test. […]
For assessment of signaling in healthy cells, human monocytes were isolated from PBMCs from two donors using a StemCell monocyte isolation kit (StemCell, Vancouver, BC). […] Data were quantified using FIJI (NIH, MD).

With “collagen: plate-coated human Collagen I, LAIR-1 ligand, mimics an extracellular matrix [reference compound]” the “pSHP-1 relative to control” value was “limited increase”.

Source: patent publication US20240352121A1, “LAIR-1 AGONISTIC ANTIBODIES AND METHODS OF USE THEREOF” (NEXTCURE, INC., priority 2023, published 2024)
